Assays:
[1] = Electrochemical properties (onset oxidation/reduction potentials, HOMO, LUMO, gap); assay type: physicochemical; set-up: Eox / Ered: unit not given here; details: for HOMO: HOMO = −e(Eox + 4.32); for Eg: HOMO-LUMO gap; for LUMO: LUMO = −e(Ered + 4.32); for Eox: onset oxidation potential; for Ered: onset reduction potential
Excerpt: The energy difference between HOMO and LUMO is also illustrated in FIG. 4. […] The compounds of formulae 1b-d have similar energy difference between HOMO and LUMO, meaning their potential energy levels are similar. Among the compounds of formulae 1a-d, it appears that the compound of formula 1a has the best potential energy suitable for being applied in organic photovoltaics; the compound of formula 1c is the second best.

[2] = Relative solubility in non-halogenated solvents, evaluated by visual observation; assay type: physicochemical; details: concentration 30 mg/mL
Procedure: Each of the compounds is added into the test tubes containing five organic solvents at a concentration of 30 mg/mL.

Row | SMILES | HOMO [1] | Eg [1] | LUMO [1] | Eox [1] | Ered [1] | Relative solubility in diethyl ether [2] | Relative solubility in toluene [2] | Relative solubility in ethanol [2] | Relative solubility in ethyl acetate [2] | Relative solubility in tetrahydrofuran (THF) ([2]; THF)
1 | Cc1cccc(C)c1C(=O)OC12c3c4c5c6c7c8c(c9c%10c1c1c%11c3c3c%12c4c4c6c6c7c7c%13c8c9c8c9c%10c1c1c%10c%11c3c3c%11c%12c4c4c6c6c7c7c%13c8c8c9c1c1c%10c3c3c%11c4c6c4c7c8c1c34)C52O[Si](C)(C)c1ccccc1 (stereo not drawn) [Formula 1a] | −6.08 eV | 2.41 eV | −3.67 eV | 1.76 | −0.65 | Insoluble | Soluble | – | – | –
2 | Cc1cccc(C)c1C(=O)OC12c3c4c5c6c7c8c(c9c%10c1c1c%11c3c3c%12c4c4c6c6c7c7c%13c8c9c8c9c%10c1c1c%10c%11c3c3c%11c%12c4c4c6c6c7c7c%13c8c8c9c1c1c%10c3c3c%11c4c6c4c7c8c1c34)C52OC[Si](C)(C)c1ccccc1 (stereo not drawn) [Formula 1b] | −6.03 eV | 2.25 eV | −3.78 eV | 1.71 | −0.54 | Insoluble | – | Insoluble | Insoluble | –
3 | Cc1cccc(C)c1C(=O)OC12c3c4c5c6c7c8c(c9c%10c1c1c%11c3c3c%12c4c4c6c6c7c7c%13c8c9c8c9c%10c1c1c%10c%11c3c3c%11c%12c4c4c6c6c7c7c%13c8c8c9c1c1c%10c3c3c%11c4c6c4c7c8c1c34)C52O[Si](C)(C)C(C)(C)C (stereo not drawn) [Formula 1d] | −6.06 eV | 2.22 eV | −3.84 eV | 1.74 | −0.48 | Insoluble | – | Insoluble | Insoluble | Insoluble
4 | CCCC[Si](C)(C)OC12c3c4c5c6c7c8c(c9c%10c1c1c%11c3c3c%12c4c4c6c6c7c7c%13c8c9c8c9c%10c1c1c%10c%11c3c3c%11c%12c4c4c6c6c7c7c%13c8c8c9c1c1c%10c3c3c%11c4c6c4c7c8c1c34)C52OC(=O)c1c(C)cccc1C (stereo not drawn) [Formula 1c] | −6.12 eV | 2.29 eV | −3.83 eV | 1.80 | −0.49 | Insoluble | Soluble | Insoluble | Insoluble | –
